The values below come from publication PMC9701179, “New tricyclic systems as photosensitizers towards triple negative breast cancer cells” (Archives of Pharmacal Research, 2022).

Experiment [1] concerns MDA-MB-231 cells. The experiment in a line: Intracellular ROS production (CM-H2DCFDA) under UVA. The format is cell-based, human. The following applies: MDA-MB-231, 25 µM, 90 min, UVA 2.0 J/cm^2; antimycin 3 µM positive control. On the procedure: The production of ROS was measured in MDA-MB-231 cells (10^4 per well) grown for 24 h in a 96-well plate in RPMI medium without phenol red (Merk, Germany). Cells were then washed with PBS and loaded with 10 μM 5-(and-6)-chloromethyl-2′,7′-dichlorodihydrofluorescein diacetate acetyl ester (CM–H2DCFDA) (Molecular Probes-Invitrogen, Eugene, OR) for 45 min, in the dark. Afterwards, cells were washed with PBS and incubated with tested compounds (25 µM) for 90 min and after that exposed to UVA light (2.0 J/cm^2). Fluorescence increase was estimated utilizing the wavelengths of 485 nm (excitation) and 527 nm (emission) in a VICTOR X3 (PerkinElmer, USA) plate reader. Antimycin (3 μM, Merk), a potent inhibitor of Complex III in the electron transport chain, was used as positive control.
ROS production under light (UVA, 2.0 J/cm^2) was evaluated in MDA-MB-231 cell samples treated with increasing concentrations of tested compounds or antimycin, a potent inhibitor of Complex III of mitochondria electron chain, used as a positive control under the same experimental conditions (Fig. 4).
Fig. 4 Cellular ROS production (A) and total thiol redox state (B). A Effect of UVA activated tested compounds (25 µM) or antimycin (3 µM) on hydrogen peroxide formation in MDA-MB-231 cancer cells. B Sulfhydryl content in MDA-MB-231 cancer cells incubated for 24 h with UVA activated tested compounds. The sulfhydryl group amount was determined by the DTNB assay. Error bars indicate S.D

Experiment [2] has as its system MDA-MB-231 cells. The experiment in a line: Mitochondrial membrane potential (Mito-ID kit). The format is cell-based, human. To be noted: MDA-MB-231, UVA 2.0 J/cm^2; CCCP positive control. As for the experimental part: The ΔΨ was assayed using the Mito-ID® Membrane Potential Kit according to the manufacturer’s instructions (Enzo Life Sciences, Farmingdale, NY, USA) as previously described. Briefly, MDA-MB-231 cells (8 × 10^3 per well) were seeded in 96-well plates; after 24 h, cells were washed with PBS and loaded with Mito-ID Detection Reagent for 30 min at 37 °C in the dark. Afterwards, cells were incubated with increasing concentrations of tested compounds for 90 min and after that exposed to UVA light (2.0 J/cm^2). CCCP (Carbonyl cyanide 3-chlorophenyl-hydrazone) was used as positive control. Fluorescence intensity was estimated using a VICTOR X3 (PerkinElmer, USA) plate reader at 490 (excitation) and 590 nm (emission).
Induction of ROS production can in turn prompt the collapse of mitochondrial membrane potential as well as loss of mitochondrial integrity and functioning. […] MDA-MB-231 TNBC cells were treated with tested compounds upon UVA irradiation and the percentage of cells with hypopolarized mitochondrial membrane potential was determined fluorometrically by means of the Mito-ID® Membrane Potential Kit.
Fig. 5 Effects on mitochondrial membrane potential (A) and cell death induction (B) in human breast MDA-MB-231 cancer cells. A Cells were treated with 7h and 8e and stained with TMRM (10 nM). Fluorescence was estimated at 490 nm (excitation) and 590 nm (emission). Data are the means of five independent experiments. Error bars indicate S.D. * P < 0.05. B Cells were treated with concentrations of 7h and 8e equal to IC50 for 24 h and stained with the fluorescent dyes Hoechst 33342 and PI

Experiment [3] has as its system MDA-MB-231 cells. Briefly: MTT cytotoxicity/photocytotoxicity test on human TNBC MDA-MB-231 cells. To be noted: Homo sapiens. The format is cell-based. As for the experimental part:
The irradiation device used for the irradiation of cell cultures during the assays was a black box equipped with two Philips UVA lamps with an irradiance of 17 mW cm^−2 and a centered emission peak at 365 nm; UVA irradiance was measured using a Waldmann Variocontrol radiometer, equipped with a UVA sensor. The box was maintained at room temperature inside with a fan and the multiwell plates were placed onto a water-refrigerated metal block.
Human triple negative (TNBC) breast MDA-MB-231 carcinoma cells were obtained from American Type Culture Collection (ATCC, Rockville, MD, USA). Human embryonic kidney HEK293 cells were obtained from the European Collection of Cell Cultures (ECACC, Salisbury, UK). Cell lines were maintained in the logarithmic phase at 37 °C in a 5% CO2 atmosphere using the following culture media containing 10% foetal calf serum (Euroclone, Milan, Italy), antibiotics (50 units/mL penicillin and 50 μg/mL streptomycin) and 2 mM l-glutamine: (i) RPMI-1640 medium (Euroclone, Milan, Italy) for MDA-MB-231 4 cells; (ii) DMEM (Euroclone, Milan, Italy) for HEK293 cells.
Cells (5–8 × 10^3 cells/well, dependent upon the growth characteristics of the cell line) were seeded in 96-well microplates in growth medium (100 μL). After 24 h, the medium was removed and replaced with a fresh one containing the compound to be studied at the appropriate concentration. Triplicate cultures were established for each treatment. For photocytotoxicity studies, after 1 h of incubation the medium was replaced with PBS and cells were treated with 2.0 J cm^−2 of UVA light. After irradiation, PBS was replaced with complete proliferation media. For pre-irradiation studies, instead, compounds in PBS were irradiated with 2.0 J cm^−2 of UVA light and subsequently cells were treated with pre-irradiated solutions. Following 24 h, each well was treated with 10 μL of a 5 mg/mL MTT saline solution, and following 5 h of incubation, 100 μL of a sodium dodecyl sulfate (SDS) solution in HCl 0.01 M were added. After an overnight incubation, cell growth inhibition was detected by measuring the absorbance of each well at 570 nm using a Bio-Rad 680 microplate reader. Mean absorbance for each drug dose was expressed as a percentage of the control untreated well absorbance and plotted against drug concentration. IC50 values, the drug concentrations that reduce the mean absorbance at 570 nm to 50% of those in the untreated control wells, were calculated by the four-parameter logistic (4-PL) model. Evaluation was based on means from at least four independent experiments.
The new synthetized pyrrolo[1,2-h][1,7]naphthyridinones 7 and pyrido[2,3-c]pyrrolo[1,2-a]azepinones 8 were screened for their cytotoxicity (in the dark) and photocitotoxicity (upon UVA light irradiation at 2.0 J/cm^2) profile on human TNBC cells, MDA-MB-231. The cytotoxicity/photocytotoxicity parameters, expressed in terms of IC50 values obtained by MTT test after 24 h of drug-exposure, are listed in Table 2.

Setting [4] is: MDA-MB-231, in the dark, 1 h pre-treatment, recovered for total 24 h, read-out: Dark IC50 (µM) ± S.D.
Where [5] appears, read: light or radiation study, MDA-MB-231, 1 h pre-treatment, UVA 2.0 J/cm^2, recovered for total 24 h, read-out: UVA (2.0 J/cm^2) IC50 (µM) ± S.D.

Structures are written as SMILES. Where two headings read alike, the source gives them in different places.

On to `CCOC(=O)c1ccc2n1CCc1cc(S(=O)(=O)c3ccccc3)c(=O)n(C)c1-2` [Compound 7e, Ethyl 3-(benzenesulfonyl)-1-methyl-2-oxo-1,2,5,6-tetrahydropyrrolo[1,2-h][1,7]naphthyridine-8-carboxylate], for which the “Cellular ROS production (hydrogen peroxide formation)” value in experiment [1] is “hardly effective in inducing any ROS basal level production increase”. Moreover, the “Cells with depolarized mitochondria (mitochondrial membrane potential)” value in experiment [2] was “did not induce a substantial change in mitochondrial membrane potential”. The IC50 in experiment [3] (setting [4]) and in experiment [3] (setting [5]) was over 50 µM in each case.

Consider `CC(C)OC(=O)c1ccc2n1CCCc1cc(S(=O)(=O)c3ccccc3)c(=O)n(C)c1-2` [Compound 8d, Propan-2-yl 3-(benzenesulfonyl)-1-methyl-2-oxo-1,5,6,7-tetrahydro-2H-pyrido[2,3-c]pyrrolo[1,2-a]azepine-9-carboxylate], for which, in experiment [1], the “Cellular ROS production (hydrogen peroxide formation)” value is on record as “hardly effective in inducing any ROS basal level production increase”. Besides, the “Cells with depolarized mitochondria (mitochondrial membrane potential)” value in experiment [2] is recorded as “did not induce a substantial change in mitochondrial membrane potential”. For the same molecule, the IC50 in experiment [3] (setting [4]) and in experiment [3] (setting [5]) was over 50 µM each time.
